Four compounds from patent US12486287B2, “Solid forms of a promoter of spinogenesis” (Spinogenix, Inc., priority 2019, dated 2025) can be followed below.

Usually solubility stands for how much of the substance goes into solution per volume.

Values after ≈ are worked out from the molar mass of the structure shown.

Holding throughout (format): physicochemical
A short description of data set [1]: Stability / interconversion of crystal forms (XRPD). The protocol: Compound I was subjected to various crystallization conditions, including solid vapor diffusion, anti-solvent addition, liquid vapor diffusion, slow cooling, slurry conversion at various temperatures, temperature cycling, and slow evaporation. Crystalline forms of Compound I were analyzed by X-ray powder diffraction (XRPD), differential scanning calorimetry (DSC) and thermogravimetric analysis (TGA), while metastable forms were analyzed by XRPD. XRPD was performed with a Panalytical X'Pert3 Powder XRPD with a Si zero-background holder. The 2θ position was calibrated against a Panalytical Si reference standard disc.
Forms II and III only existed in the wet state and no solid was isolated for thermal analyses. Form V solids were obtained, however, Form V changed to Form I at around 50° C. upon drying in a vacuum oven. A summary of isolated forms and conditions is in Table 1-5 and Table 1-6.

Data set [2] in a line: Approximate solubility in single solvents at RT. Conditions: thermodynamic from solid, room temperature. The protocol:
Approximate solubility of Compound I was determined in 20 single solvents at RT. Approximately 2 mg of powder sample was added into a 3-mL glass vial. Corresponding solvents were added stepwise (50 μL→100 μL→300 μL→1000 μL) into each vial until powder solids were completely dissolved visually or a total volume of 1 mL solvent was added. Approximate solubility values were calculated based on sample mass, solvent volume, and experimental observation. Results summarized in Table 3-1 were used to guide subsequent solvent selection in the design of polymorph screening experiments.

The nature of data set [3]: Solid state stability evaluation (XRPD, PLM, HPLC purity after storage). Conditions: 30° C./65% RH and 40° C./75% RH, open and closed. The protocol:
Agilent 1260 HPLC with VWD detector was utilized and detailed chromatographic conditions for purity analysis are listed ill Table 1-4.
The solid state stability of Compound I was evaluated under conditions of 30° C./65% RH (open dish and closed container) and 40° C./75% RH (open dish and closed container) for 4 weeks. The detailed procedures utilized for stability evaluation are listed: 1) Weighed about 10 mg of Compound I starting material into 3-mL glass vials; 2) For the open dish conditions, covered the vials with Parafilm® and poked 6 holes. For the closed conditions, sealed the vials with caps and kept the vials in the corresponding conditions, respectively; For the condition of 40° C./75% RH, placed the vials in the stability chamber of 40° C./75% RH; For the condition of 30° C./65% RH, placed the vials in the airtight atmosphere generated by saturated aqueous potassium iodide solution in 30° C. bio-chemical; 4) Samples taken for XRPD, PLM, and HPLC purity after 3 days, 1 week, 2 weeks and 4 weeks.
Solid state stability evaluation of Compound I Form I starting material was performed under conditions of 30° C./65% RH (closed and open) and 40° C./75% RH (closed and open). X-ray powder diffraction (XRPD), polarizing microscope (PLM) and HPLC purity were characterized at 4 sampling points (3 days, 1 week, 2 weeks, 4 weeks).
For the single crystal structure determination, 83 single crystal growth experiments were performed by different methods including slow evaporation, liquid vapor diffusion, slow cooling, heating-cooling and solvent-thermal synthesis. The stability evaluation experiments in 40° C./75% RH condition were performed using stability chamber, while the 30° C./65% RH condition was set up by saturated aqueous potassium iodide solution in 30° C. bio-chemical incubator.

`OCCOCCOCCOCCOc1ccc(-c2nc3ccccc3s2)cc1` [Compound I Form II, 2-(2-(2-(2-(4-(benzo[d]thiazol-2-yl)phenoxy)ethoxy)ethoxy)ethoxy)ethan-1-ol]: in data set [1] (listed as Form II), the “Stability of crystal form (conversion on storage, air exposure or drying)” value (“Stability of crystal form” below) was “changed to a mixture of Form II and C or a mixture of Form III and Form V upon storage”.
`OCCOCCOCCOCCOc1ccc(-c2nc3ccccc3s2)cc1` [Compound I Form III, 2-(2-(2-(2-(4-(benzo[d]thiazol-2-yl)phenoxy)ethoxy)ethoxy)ethoxy)ethan-1-ol]: in data set [1] (listed as Form III), the “Stability of crystal form” value is given as “quickly converted to Form I upon exposure to open air”.
For the compound `OCCOCCOCCOCCOc1ccc(-c2nc3ccccc3s2)cc1` [Compound I Form V, 2-(2-(2-(2-(4-(benzo[d]thiazol-2-yl)phenoxy)ethoxy)ethoxy)ethoxy)ethan-1-ol], in data set [1] (listed as Form V), the “Stability of crystal form” value is “converted to Form I upon vacuum drying at ˜50 °C”.
As to `OCCOCCOCCOCCOc1ccc(-c2nc3ccccc3s2)cc1` [Compound I, 2-(2-(2-(2-(4-(benzo[d]thiazol-2-yl)phenoxy)ethoxy)ethoxy)ethoxy)ethan-1-ol], the solubility was above 32 mg/mL in data set [2] (organic solvent or mixture, 1,4-dioxane); 20 to 40 mg/mL (≈ 49.6 to 99.1 mM) in data set [2] (organic solvent or mixture, 2-MeTHF); 6 to 18 mg/mL (≈ 14.9 to 44.6 mM) in data set [2] (organic solvent or mixture, Acetone); 8 to 24 mg/mL (≈ 19.8 to 59.5 mM) in data set [2] (organic solvent or mixture, Acetonitrile); below 2.6 mg/mL in data set [2] (organic solvent or mixture, CPME); above 38 mg/mL in data set [2] (organic solvent or mixture, DCM). Further, the solubility in data set [2] (organic solvent or mixture, DMF) was above 44 mg/mL; in data set [2] (organic solvent or mixture, DMSO), 18 to 36 mg/mL (≈ 44.6 to 89.2 mM); in data set [2] (organic solvent or mixture, EtOAc) it was 20 to 40 mg/mL (≈ 49.6 to 99.1 mM); in data set [2] (organic solvent or mixture, EtOH), 7.3 to 22 mg/mL (≈ 18.1 to 54.5 mM); in data set [2] (organic solvent or mixture, Heptane), below 2.2 mg/mL; in data set [2] (organic solvent or mixture, IPA), below 1.9 mg/mL. The solubility in data set [2] (organic solvent or mixture, IPAc) was 1.7 to 5.7 mg/mL (≈ 4.21 to 14.1 mM); in data set [2] (organic solvent or mixture, MEK), 18 to 36 mg/mL (≈ 44.6 to 89.2 mM); in data set [2] (organic solvent or mixture, MIBK), 2.5 to 8.3 mg/mL (≈ 6.2 to 20.6 mM); in data set [2] (organic solvent or mixture, MTBE), below 2 mg/mL; in data set [2] (organic solvent or mixture, MeOH), 21 to 42 mg/mL (≈ 52 to 104 mM); in data set [2] (organic solvent or mixture, THF), above 36 mg/mL. Further, the solubility in data set [2] (organic solvent or mixture, Toluene) is 6 to 18 mg/mL (≈ 14.9 to 44.6 mM); in data set [2] (water, H2O), below 1.8 mg/mL. Further, the “HPLC purity decrease after storage” value in data set [3] (4 weeks) is given as “no significant HPLC purity decrease was observed”. The “Form change after storage (XRPD)” value in data set [3] (up to 4 weeks) was “no form change was observed”.
